Reference: ChEMBL document CHEMBL4507319 (2021)

Experiments:
OCI-Ly7 = assay: Oci-Ly-7 cell line Proliferation assay; assay type: functional, Homo sapiens; conditions: time 3 day
VCaP = assay: VCaP cell line Proliferation assay; assay type: functional, Homo sapiens; conditions: time 6 day
[1] = target: Testis-specific serine/threonine-protein kinase 4 (Homo sapiens) (UniProt Q6SA08); assay: TSSK4(h) Eurofins kinase panel; conditions: Compound concentration 1.0 uM
[2] = target: PI3-kinase p110-alpha/p85-alpha (Homo sapiens) (UniProt P27986+P42336); assay: PI3 Kinase(p110a/p85a)(h) Eurofins kinase panel; assay type: protein-complex assay; conditions: Compound concentration 1.0 uM
[3] = target: Ephrin type-A receptor 5 (Homo sapiens) (UniProt P54756); assay: EphA5(h) Eurofins kinase panel; conditions: Compound concentration 1.0 uM
[4] = target: Calcium/calmodulin-dependent protein kinase type 1 (Homo sapiens) (UniProt Q14012); assay: CaMKI(h) Eurofins kinase panel; conditions: Compound concentration 1.0 uM
[5] = target: ALK tyrosine kinase receptor (Homo sapiens) (UniProt Q9UM73); assay: ALK(h) Eurofins kinase panel; conditions: Compound concentration 1.0 uM
[6] = target: MAPK/MAK/MRK overlapping kinase (Homo sapiens) (UniProt Q9UQ07); assay: MOK(h) Eurofins kinase panel; conditions: Compound concentration 1.0 uM
[7] = target: T1, Serine/threonine-protein kinase Sgk2 (Homo sapiens) (UniProt Q9HBY8); assay: SGK2(h) Eurofins kinase panel; conditions: Compound concentration 1.0 uM
T1 sequence (whole entry): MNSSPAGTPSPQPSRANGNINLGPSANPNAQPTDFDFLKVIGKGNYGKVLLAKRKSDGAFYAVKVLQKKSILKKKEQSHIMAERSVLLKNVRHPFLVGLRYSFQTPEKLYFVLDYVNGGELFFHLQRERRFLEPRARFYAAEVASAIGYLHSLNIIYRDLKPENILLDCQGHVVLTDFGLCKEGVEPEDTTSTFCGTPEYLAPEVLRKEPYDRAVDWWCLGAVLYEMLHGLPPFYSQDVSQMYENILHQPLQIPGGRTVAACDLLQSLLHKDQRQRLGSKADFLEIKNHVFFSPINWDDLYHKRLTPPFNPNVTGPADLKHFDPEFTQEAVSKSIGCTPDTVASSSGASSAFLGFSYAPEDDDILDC

[8] = target: 5'-AMP-activated protein kinase catalytic subunit alpha-1 (Homo sapiens, UniProt Q13131); conditions: Compound concentration 1.0 uM
[9] = target: Ribosomal protein S6 kinase alpha-1 (Homo sapiens, UniProt Q15418)
[10] = target: Serine/threonine-protein kinase PAK 4 (Homo sapiens) (UniProt O96013); assay: PAK4(h) Eurofins kinase panel; conditions: Compound concentration 1.0 uM
[11] = target: Serine/threonine-protein kinase 35 (Homo sapiens) (UniProt Q8TDR2); assay: CLIK1(h) Eurofins kinase panel; conditions: Compound concentration 1.0 uM
[12] = target: Serine/threonine-protein kinase Nek6 (Homo sapiens) (UniProt Q9HC98); assay: NEK6(h) Eurofins kinase panel; conditions: Compound concentration 1.0 uM
[13] = target: G protein-coupled receptor kinase 5 (Homo sapiens) (UniProt P34947); assay: GRK5(h) Eurofins kinase panel; conditions: Compound concentration 1.0 uM
LNCaP = assay: LNCaP cell line Proliferation assay; assay type: functional, Homo sapiens; conditions: time 6 day
A549 = assay: A549 cell line Proliferation assay; assay type: functional, Homo sapiens; conditions: time 3 day
NCI-H292 = assay: NCI- H292 cell line Proliferation assay; assay type: functional, Homo sapiens; conditions: time 3 day
SK-N-FI = assay: SK-N-F1, control cell line Proliferation assay; assay type: functional, Homo sapiens; conditions: time 6 day
[14] = target: Death-associated protein kinase 3 (Homo sapiens) (UniProt O43293); assay: ZIPK(h) Eurofins kinase panel; conditions: Compound concentration 1.0 uM
[15] = target: Tyrosine-protein kinase CSK (Homo sapiens) (UniProt P41240); assay: CSK(h) Eurofins kinase panel; conditions: Compound concentration 1.0 uM
[16] = target: DNA-dependent protein kinase catalytic subunit (Homo sapiens) (UniProt P78527); assay: DNA-PK(h) Eurofins kinase panel; conditions: Compound concentration 1.0 uM
[17] = target: BDNF/NT-3 growth factors receptor (Homo sapiens) (UniProt Q16620); assay: TrkB(h) Eurofins kinase panel; conditions: Compound concentration 1.0 uM
[18] = target: cAMP-dependent protein kinase catalytic subunit alpha (Homo sapiens) (UniProt P17612); assay: PKA(h) Eurofins kinase panel; conditions: Compound concentration 1.0 uM
[19] = target: T2, Serine/threonine-protein kinase 4 (Homo sapiens) (UniProt Q13043); assay: MST1(h) Eurofins kinase panel; conditions: Compound concentration 1.0 uM
T2 sequence (whole entry): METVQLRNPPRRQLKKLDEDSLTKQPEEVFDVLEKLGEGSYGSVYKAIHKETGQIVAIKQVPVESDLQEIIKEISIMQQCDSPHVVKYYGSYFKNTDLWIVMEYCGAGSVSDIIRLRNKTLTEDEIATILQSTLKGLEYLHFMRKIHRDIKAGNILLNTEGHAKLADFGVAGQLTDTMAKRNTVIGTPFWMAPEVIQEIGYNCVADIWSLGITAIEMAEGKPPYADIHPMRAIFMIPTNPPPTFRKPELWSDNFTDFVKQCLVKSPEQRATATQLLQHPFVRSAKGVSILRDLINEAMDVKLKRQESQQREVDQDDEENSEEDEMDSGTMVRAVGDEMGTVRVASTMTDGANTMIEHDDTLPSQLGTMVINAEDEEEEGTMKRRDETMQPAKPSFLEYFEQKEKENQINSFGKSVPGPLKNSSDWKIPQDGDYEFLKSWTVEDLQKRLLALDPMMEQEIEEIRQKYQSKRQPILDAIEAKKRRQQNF

[20] = target: G protein-coupled receptor kinase 6 (Homo sapiens) (UniProt P43250); assay: GRK6(h) Eurofins kinase panel; conditions: Compound concentration 1.0 uM
[21] = target: T3, MAP kinase-activated protein kinase 5 (Homo sapiens) (UniProt Q8IW41); assay: PRAK(h) Eurofins kinase panel; conditions: Compound concentration 1.0 uM
T3 sequence (whole entry): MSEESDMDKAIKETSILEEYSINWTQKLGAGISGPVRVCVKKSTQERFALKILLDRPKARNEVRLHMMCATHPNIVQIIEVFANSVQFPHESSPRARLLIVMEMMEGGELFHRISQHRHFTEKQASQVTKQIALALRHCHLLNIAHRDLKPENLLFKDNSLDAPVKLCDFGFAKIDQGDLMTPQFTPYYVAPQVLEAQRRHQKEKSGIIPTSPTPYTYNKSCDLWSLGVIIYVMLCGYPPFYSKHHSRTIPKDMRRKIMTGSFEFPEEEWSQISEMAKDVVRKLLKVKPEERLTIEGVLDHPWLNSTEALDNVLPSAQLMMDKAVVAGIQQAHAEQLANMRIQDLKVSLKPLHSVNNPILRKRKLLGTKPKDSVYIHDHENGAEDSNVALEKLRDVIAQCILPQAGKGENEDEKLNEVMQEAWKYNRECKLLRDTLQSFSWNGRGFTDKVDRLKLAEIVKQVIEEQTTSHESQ

[22] = target: Serine/threonine-protein kinase pim-1 (Homo sapiens) (UniProt P11309); assay: Pim-1(h) Eurofins kinase panel; conditions: Compound concentration 1.0 uM
[23] = target: TRAF2 and NCK-interacting protein kinase (Homo sapiens) (UniProt Q9UKE5); assay: TNIK(h) Eurofins kinase panel; conditions: Compound concentration 1.0 uM
[24] = target: Epithelial discoidin domain-containing receptor 1 (Homo sapiens) (UniProt Q08345); assay: DDR1(h) Eurofins kinase panel; conditions: Compound concentration 1.0 uM
[25] = target: Beta-3 adrenergic receptor (Homo sapiens) (UniProt P13945); conditions: Compound concentration 10.0 uM
[26] = target: Beta-2 adrenergic receptor (Homo sapiens) (UniProt P07550); conditions: Compound concentration 10.0 uM

Sequence of G protein-coupled receptor kinase 6 (Homo sapiens) (P43250 whole entry, looked up): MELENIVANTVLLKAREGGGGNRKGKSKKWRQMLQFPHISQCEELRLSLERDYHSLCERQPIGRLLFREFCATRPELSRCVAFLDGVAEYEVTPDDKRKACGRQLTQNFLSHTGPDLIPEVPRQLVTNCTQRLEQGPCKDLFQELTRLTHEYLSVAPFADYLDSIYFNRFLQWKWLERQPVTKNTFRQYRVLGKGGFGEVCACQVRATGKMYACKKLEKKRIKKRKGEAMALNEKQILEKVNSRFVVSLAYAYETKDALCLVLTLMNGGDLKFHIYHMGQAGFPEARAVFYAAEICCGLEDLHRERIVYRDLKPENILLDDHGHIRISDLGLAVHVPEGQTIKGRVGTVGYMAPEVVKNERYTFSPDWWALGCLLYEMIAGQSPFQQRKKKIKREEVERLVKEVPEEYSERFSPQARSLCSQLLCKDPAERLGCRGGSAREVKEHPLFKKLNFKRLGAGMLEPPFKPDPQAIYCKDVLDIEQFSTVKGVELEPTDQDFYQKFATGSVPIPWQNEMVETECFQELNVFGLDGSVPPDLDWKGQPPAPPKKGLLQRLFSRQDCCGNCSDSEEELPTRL
Sequence of Death-associated protein kinase 3 (Homo sapiens) (O43293 whole entry, looked up): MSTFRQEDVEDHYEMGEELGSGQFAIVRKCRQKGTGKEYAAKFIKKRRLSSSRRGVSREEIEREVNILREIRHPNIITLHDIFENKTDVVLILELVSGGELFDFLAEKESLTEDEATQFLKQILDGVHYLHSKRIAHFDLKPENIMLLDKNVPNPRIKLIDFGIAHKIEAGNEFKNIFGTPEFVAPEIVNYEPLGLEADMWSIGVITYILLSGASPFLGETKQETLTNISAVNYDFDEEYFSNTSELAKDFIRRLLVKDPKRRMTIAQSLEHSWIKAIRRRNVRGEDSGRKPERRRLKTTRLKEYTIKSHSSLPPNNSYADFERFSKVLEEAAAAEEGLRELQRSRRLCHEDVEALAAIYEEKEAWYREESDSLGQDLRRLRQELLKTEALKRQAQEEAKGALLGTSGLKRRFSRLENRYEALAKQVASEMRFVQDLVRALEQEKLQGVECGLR
Sequence of 5'-AMP-activated protein kinase catalytic subunit alpha-1 (Q13131 whole entry, looked up): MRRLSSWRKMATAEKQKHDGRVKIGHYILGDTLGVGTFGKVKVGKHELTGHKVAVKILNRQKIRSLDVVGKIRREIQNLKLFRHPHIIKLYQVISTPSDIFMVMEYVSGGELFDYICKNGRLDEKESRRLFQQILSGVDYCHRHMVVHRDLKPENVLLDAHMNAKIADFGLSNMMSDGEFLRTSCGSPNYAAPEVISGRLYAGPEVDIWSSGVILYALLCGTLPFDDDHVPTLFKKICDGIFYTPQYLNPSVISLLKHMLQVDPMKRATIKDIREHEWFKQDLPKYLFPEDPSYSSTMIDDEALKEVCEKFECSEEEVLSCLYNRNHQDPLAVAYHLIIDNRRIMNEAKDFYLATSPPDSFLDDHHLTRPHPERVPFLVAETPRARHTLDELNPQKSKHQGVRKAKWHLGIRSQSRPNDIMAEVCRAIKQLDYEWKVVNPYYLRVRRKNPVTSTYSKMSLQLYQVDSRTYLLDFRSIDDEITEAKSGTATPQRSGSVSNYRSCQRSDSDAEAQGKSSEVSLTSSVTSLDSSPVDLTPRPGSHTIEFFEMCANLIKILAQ
Sequence of MAPK/MAK/MRK overlapping kinase (Homo sapiens) (Q9UQ07 whole entry): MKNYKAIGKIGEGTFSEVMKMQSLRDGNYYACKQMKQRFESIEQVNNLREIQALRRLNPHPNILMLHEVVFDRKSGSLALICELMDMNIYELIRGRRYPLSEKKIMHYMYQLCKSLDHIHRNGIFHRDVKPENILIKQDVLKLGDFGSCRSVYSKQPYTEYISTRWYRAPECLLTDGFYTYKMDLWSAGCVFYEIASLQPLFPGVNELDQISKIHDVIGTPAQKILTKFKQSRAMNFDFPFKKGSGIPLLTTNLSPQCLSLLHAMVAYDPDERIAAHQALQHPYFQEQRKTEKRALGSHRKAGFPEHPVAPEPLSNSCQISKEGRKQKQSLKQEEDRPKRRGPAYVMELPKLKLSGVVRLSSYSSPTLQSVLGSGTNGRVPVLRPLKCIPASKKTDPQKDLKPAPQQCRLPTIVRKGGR
Sequence of Epithelial discoidin domain-containing receptor 1 (Homo sapiens) (Q08345 whole entry, the tested form may be a part): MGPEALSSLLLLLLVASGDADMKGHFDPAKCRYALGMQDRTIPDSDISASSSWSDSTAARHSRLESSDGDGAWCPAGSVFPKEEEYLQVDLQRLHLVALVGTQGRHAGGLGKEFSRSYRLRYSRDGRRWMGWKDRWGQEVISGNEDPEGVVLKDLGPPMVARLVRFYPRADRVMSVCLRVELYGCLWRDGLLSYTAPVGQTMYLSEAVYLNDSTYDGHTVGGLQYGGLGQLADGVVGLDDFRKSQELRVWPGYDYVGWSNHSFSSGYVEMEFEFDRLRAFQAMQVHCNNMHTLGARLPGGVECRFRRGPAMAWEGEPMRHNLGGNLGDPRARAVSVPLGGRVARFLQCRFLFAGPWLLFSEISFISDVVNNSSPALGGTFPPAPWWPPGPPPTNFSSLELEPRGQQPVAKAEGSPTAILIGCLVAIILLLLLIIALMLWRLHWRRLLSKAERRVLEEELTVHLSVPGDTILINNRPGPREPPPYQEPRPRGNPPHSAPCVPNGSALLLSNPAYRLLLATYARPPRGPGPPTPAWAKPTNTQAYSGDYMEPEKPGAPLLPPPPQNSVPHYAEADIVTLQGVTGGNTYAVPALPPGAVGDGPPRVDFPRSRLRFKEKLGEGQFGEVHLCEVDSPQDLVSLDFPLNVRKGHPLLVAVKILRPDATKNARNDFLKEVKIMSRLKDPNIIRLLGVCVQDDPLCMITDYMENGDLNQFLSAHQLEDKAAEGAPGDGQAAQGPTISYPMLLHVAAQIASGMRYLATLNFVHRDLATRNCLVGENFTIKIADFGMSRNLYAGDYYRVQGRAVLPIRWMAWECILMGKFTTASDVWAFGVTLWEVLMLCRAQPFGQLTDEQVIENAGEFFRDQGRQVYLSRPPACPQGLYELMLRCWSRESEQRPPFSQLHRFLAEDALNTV
Sequence of Beta-3 adrenergic receptor (Homo sapiens) (P13945 whole entry, looked up): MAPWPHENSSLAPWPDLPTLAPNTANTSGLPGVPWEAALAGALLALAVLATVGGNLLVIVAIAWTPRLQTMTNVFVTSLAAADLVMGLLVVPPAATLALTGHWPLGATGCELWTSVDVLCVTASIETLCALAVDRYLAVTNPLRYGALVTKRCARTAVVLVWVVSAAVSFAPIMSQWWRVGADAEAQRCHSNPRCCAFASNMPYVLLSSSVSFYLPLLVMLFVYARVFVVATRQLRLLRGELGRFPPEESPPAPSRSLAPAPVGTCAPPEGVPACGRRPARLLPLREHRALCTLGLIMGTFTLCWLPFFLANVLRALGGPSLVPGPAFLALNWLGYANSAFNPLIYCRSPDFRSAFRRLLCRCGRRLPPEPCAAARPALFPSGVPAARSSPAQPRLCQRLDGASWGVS
Sequence of TRAF2 and NCK-interacting protein kinase (Homo sapiens) (Q9UKE5 whole entry, looked up, the tested form may be a part): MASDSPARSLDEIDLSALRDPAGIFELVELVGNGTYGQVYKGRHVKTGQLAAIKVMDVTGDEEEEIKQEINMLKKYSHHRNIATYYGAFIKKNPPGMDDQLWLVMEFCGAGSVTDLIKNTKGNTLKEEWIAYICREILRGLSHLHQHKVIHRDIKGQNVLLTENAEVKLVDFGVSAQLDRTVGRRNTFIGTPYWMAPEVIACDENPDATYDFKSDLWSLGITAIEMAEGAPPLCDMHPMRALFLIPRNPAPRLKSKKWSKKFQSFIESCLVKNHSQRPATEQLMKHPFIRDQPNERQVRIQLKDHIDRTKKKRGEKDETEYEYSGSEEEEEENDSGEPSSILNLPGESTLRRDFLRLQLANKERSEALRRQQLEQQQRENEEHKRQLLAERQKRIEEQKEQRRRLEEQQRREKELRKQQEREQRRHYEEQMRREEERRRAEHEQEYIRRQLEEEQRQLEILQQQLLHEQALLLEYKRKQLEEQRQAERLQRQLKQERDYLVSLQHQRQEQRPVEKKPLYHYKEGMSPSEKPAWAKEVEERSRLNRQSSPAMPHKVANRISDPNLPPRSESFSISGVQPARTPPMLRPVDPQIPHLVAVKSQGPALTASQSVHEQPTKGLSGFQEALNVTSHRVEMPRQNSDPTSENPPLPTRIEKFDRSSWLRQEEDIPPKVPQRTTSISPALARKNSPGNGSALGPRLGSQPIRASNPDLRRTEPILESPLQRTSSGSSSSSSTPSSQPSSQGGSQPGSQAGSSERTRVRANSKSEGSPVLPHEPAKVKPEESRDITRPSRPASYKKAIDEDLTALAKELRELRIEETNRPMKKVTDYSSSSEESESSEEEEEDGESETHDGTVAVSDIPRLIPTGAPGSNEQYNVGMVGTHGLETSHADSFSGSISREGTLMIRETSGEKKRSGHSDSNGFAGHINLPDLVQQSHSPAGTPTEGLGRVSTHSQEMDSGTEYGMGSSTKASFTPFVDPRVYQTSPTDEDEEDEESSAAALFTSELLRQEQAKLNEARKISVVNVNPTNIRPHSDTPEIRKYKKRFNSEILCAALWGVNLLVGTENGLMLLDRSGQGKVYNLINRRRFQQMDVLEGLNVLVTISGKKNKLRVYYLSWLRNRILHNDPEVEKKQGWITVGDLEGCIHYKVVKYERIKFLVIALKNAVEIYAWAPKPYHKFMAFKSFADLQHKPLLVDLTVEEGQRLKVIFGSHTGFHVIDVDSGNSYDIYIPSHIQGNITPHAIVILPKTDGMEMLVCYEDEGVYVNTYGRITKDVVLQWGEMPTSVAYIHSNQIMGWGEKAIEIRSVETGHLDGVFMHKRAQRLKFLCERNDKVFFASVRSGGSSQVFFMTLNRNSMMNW
Sequence of Serine/threonine-protein kinase Nek6 (Homo sapiens) (Q9HC98 whole entry): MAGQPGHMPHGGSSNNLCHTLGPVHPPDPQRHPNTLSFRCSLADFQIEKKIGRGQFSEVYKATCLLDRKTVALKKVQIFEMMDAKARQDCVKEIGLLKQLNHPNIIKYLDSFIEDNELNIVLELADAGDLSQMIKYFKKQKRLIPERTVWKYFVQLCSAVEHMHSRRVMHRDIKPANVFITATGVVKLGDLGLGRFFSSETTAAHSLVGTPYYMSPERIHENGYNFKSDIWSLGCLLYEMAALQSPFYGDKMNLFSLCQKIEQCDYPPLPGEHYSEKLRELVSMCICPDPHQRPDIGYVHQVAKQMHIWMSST

For `CCc1ccccc1C(=O)Nc1n[nH]c2c(C)c(F)c(C3C(C#N)=C(C)N(C)C(C)=C3C#N)cc12` [BAY-3827], the “Cell Proliferation IC50” value (OCI-Ly7) was 12.2 µM, the “Cell Proliferation IC50” value (VCaP) was 1.71 µM and the % residual kinase activity [1] was 103%. The % residual kinase activity [2] was 99%, the % residual kinase activity [3] was 89% and the % residual kinase activity [4] was 93%. It also gave a % residual kinase activity [5] of 103%, a % residual kinase activity [6] of 115% and a % residual kinase activity [7] of 70%. The % residual kinase activity [8] was 1%, the IC50 [9] was 0.009 µM and the % residual kinase activity [10] was 91%. For the same compound, the % residual kinase activity [11] was 80%, the % residual kinase activity [12] was 94% and the % residual kinase activity [13] was 98%. The “Cell Proliferation IC50” value (LNCaP) was 0.28 µM, the “Cell Proliferation IC50” value (A549) was 25.8 µM and the “Cell Proliferation IC50” value (NCI-H292) was 17.1 µM. The “Cell Proliferation IC50” value (SK-N-FI) was 21.2 µM, the % residual kinase activity [14] was 91% and the % residual kinase activity [15] was 90%. It also gave a % residual kinase activity [16] of 94%, a % residual kinase activity [17] of 103% and a % residual kinase activity [18] of 103%. The % residual kinase activity [19] was 73%, the % residual kinase activity [20] was 96% and the % residual kinase activity [21] was 87%. For the same compound, the % residual kinase activity [22] was 119%, the % residual kinase activity [23] was 49% and the % residual kinase activity [24] was 32%.

Compound `CC1=C(C#N)C(c2ccc3c(c2)c(NC(=O)c2ccccc2C)nn3C)C(C#N)=C(C)N1` [BAY-974] has an inhibition [25] of -3.33% and an inhibition [26] of -7.25%.
